Assay results reported in patent publication US9029337B2, “Modulation of factor 7 expression” (Isis Pharmaceuticals, Inc., priority 2007, dated 2015).
Strand notation (5' to 3'): a small letter for the sugar, then the base; units joined by * are phosphorothioate-linked, units joined directly phosphodiester-linked; [ ] holds rarer units or linkages, { } end groups; capitals alone tell only the bases. e = 2'-O-(2-methoxyethyl) (MOE); [5mC] = 5-methylcytosine; d = 2'-deoxy (DNA)

Test system: human Factor 7 mRNA
Assay: Antisense inhibition of human Factor 7 with short (14-mer) oligonucleotides in HepB3 cells, electroporation 1,000 nM
Type: cell-based
Conditions: electroporation, 1,000 nM antisense oligonucleotide, approximately 24 hours, Factor 7 mRNA relative to untreated control cells
Excerpt: Short antisense oligonucleotides (shortmers) were designed to target a Factor 7 nucleic acid. The shortmers in Table 17 were designed as 2-10-2 MOE gapmers. The gapmers are 14 nucleotides in length, wherein the central gap segment is comprised of 10 2′-deoxynucleotides and is flanked on both sides (in the 5′ and 3′ directions) by wings comprising 2 nucleotides each. Each nucleotide in the 5′ wing segment and each nucleotide in the 3′ wing segment has a 2′-MOE modification. The internucleoside linkages throughout each gapmer are phosphorothioate (P═S) linkages. All cytidine residues throughout each gapmer are 5-methylcytidines.
Shortmers were evaluated for their ability to reduce human Factor 7 mRNA in HepB3 cells and compared with one 5-10-5 chimeric oligonucleotide from Table 16, ISIS 407939. HepB3 cells at a density of 20,000 cells per well in a 96-well plate were transfected using electroporation with 1,000 nM of antisense oligonucleotide. After a treatment period of approximately 24 hours, RNA was isolated from the cells and Factor 7 mRNA levels were measured by real-time RT-PCR, as described herein. Factor 7 mRNA levels were adjusted according to total RNA content as measured by RIBOGREEN®. Results are presented in Table 17 as percent inhibition of Factor 7 mRNA, relative to untreated control cells. ISIS 407939 is the first oligonucleotide in Table 17 to which the shortmers were compared, and is marked by an asterisk (*).

Substance	% Inhibition
435757 (antisense eT*eG*d[5mC]*d[5mC]*dT*dG*dA*dG*dT*dG*d[5mC]*d[5mC]*e[5mC]*e[5mC]) [compound 435757]	51%
435780 (antisense eG*eG*dA*dG*dG*dG*dA*d[5mC]*dG*dA*d[5mC]*d[5mC]*eT*eT) [compound 435780]	28%
435642 (antisense eA*e[5mC]*dA*d[5mC]*dT*dG*dG*dT*d[5mC]*d[5mC]*d[5mC]*d[5mC]*eA*eT) [compound 435642]	60%
435807 (antisense e[5mC]*eA*dG*dT*dA*d[5mC]*dT*dT*d[5mC]*d[5mC]*d[5mC]*dA*e[5mC]*eG) [compound 435807]	35%
435761 (antisense e[5mC]*eA*dG*dA*dT*dG*dA*dA*dA*dA*d[5mC]*dT*eT*eG) [compound 435761]	5%
435732 (antisense eG*eA*dA*dA*dA*dG*dT*dG*dA*dG*dA*dG*e[5mC]*eT) [compound 435732]	0%
435719 (antisense e[5mC]*eA*dG*d[5mC]*d[5mC]*dT*dT*dG*dG*d[5mC]*dT*dT*eT*e[5mC]) [compound 435719]	50%
435841 (antisense e[5mC]*eT*d[5mC]*dG*dG*dA*d[5mC]*dA*dA*dA*dA*dG*eA*eG) [compound 435841]	1%
435487 (antisense eA*eG*dT*d[5mC]*d[5mC]*dT*dG*dG*dG*dT*d[5mC]*dA*eT*e[5mC]) [compound 435487]	36%
435636 (antisense eG*eA*dG*dA*d[5mC]*d[5mC]*dA*dT*dG*dA*dT*dG*eA*eA) [compound 435636]	13%
435669 (antisense eG*eG*dA*d[5mC]*d[5mC]*dT*dG*d[5mC]*d[5mC]*dA*dT*dG*eG*eA) [compound 435669]	36%
435798 (antisense eA*eG*d[5mC]*d[5mC]*dA*dG*dA*d[5mC]*dT*dT*dT*d[5mC]*e[5mC]*eT) [compound 435798]	54%
435837 (antisense e[5mC]*eT*d[5mC]*dG*d[5mC]*d[5mC]*dT*dG*dG*dA*dA*dG*eG*eA) [compound 435837]	37%
435724 (antisense e[5mC]*eT*dG*dA*dG*dG*d[5mC]*d[5mC]*dA*dG*d[5mC]*dA*eG*eA) [compound 435724]	52%
435737 (antisense eG*eT*dG*d[5mC]*dA*dG*d[5mC]*d[5mC]*d[5mC]*dG*dG*d[5mC]*eA*e[5mC]) [compound 435737]	70%
435759 (antisense eG*eA*dG*d[5mC]*d[5mC]*dA*d[5mC]*dA*dG*dA*dG*d[5mC]*e[5mC]*eT) [compound 435759]	11%
435845 (antisense eG*e[5mC]*dT*d[5mC]*dA*dT*dG*dG*d[5mC]*dA*dG*dA*e[5mC]*eA) [compound 435845]	21%
435676 (antisense eG*eA*dT*dT*dT*dT*dG*dT*d[5mC]*dG*dA*dA*eA*e[5mC]) [compound 435676]	11%
435847 (antisense eT*eG*dG*dT*dG*dT*dG*d[5mC]*dA*d[5mC]*dA*d[5mC]*eA*eT) [compound 435847]	36%
435504 (antisense eA*eT*dG*dT*dA*d[5mC]*dT*dG*dG*dG*dA*dG*eA*e[5mC]) [compound 435504]	8%
435663 (antisense e[5mC]*e[5mC]*dA*d[5mC]*dA*dT*dG*dG*dA*dT*dA*dT*eT*e[5mC]) [compound 435663]	50%
435772 (antisense eG*e[5mC]*dA*dG*dT*d[5mC]*d[5mC]*d[5mC]*dT*dG*d[5mC]*dT*e[5mC]*eA) [compound 435772]	42%
435674 (antisense eA*eA*dA*d[5mC]*dA*dG*dT*dG*dG*dG*d[5mC]*d[5mC]*eG*e[5mC]) [compound 435674]	34%
435727 (antisense eT*eG*dG*dA*dG*dT*d[5mC]*dA*dG*d[5mC]*dA*dT*e[5mC]*eG) [compound 435727]	73%
435779 (antisense eT*eG*dA*dG*d[5mC]*dG*d[5mC]*dG*dG*dA*dA*dG*eA*eA) [compound 435779]	50%
435717 (antisense eT*eG*dA*dG*d[5mC]*dT*dT*dT*dT*dG*d[5mC]*dA*eG*e[5mC]) [compound 435717]	0%
435483 (antisense e[5mC]*eT*dG*dG*dG*dT*d[5mC]*dA*dT*d[5mC]*dA*dG*e[5mC]*e[5mC]) [compound 435483]	82%

Substance	% Inhibition
435485 (antisense eT*e[5mC]*d[5mC]*dT*dG*dG*dG*dT*d[5mC]*dA*dT*d[5mC]*eA*eG) [compound 435485]	34%
435696 (antisense e[5mC]*eA*dG*dA*dA*d[5mC]*dA*dT*dG*dT*dA*d[5mC]*eT*e[5mC]) [compound 435696]	10%
435486 (antisense eG*eT*d[5mC]*d[5mC]*dT*dG*dG*dG*dT*d[5mC]*dA*dT*e[5mC]*eA) [compound 435486]	64%
435668 (antisense eT*eG*d[5mC]*d[5mC]*dA*dT*dG*dG*dA*d[5mC]*dA*d[5mC]*eT*e[5mC]) [compound 435668]	75%
435755 (antisense eG*eG*dG*dA*d[5mC]*dT*d[5mC]*dA*dG*d[5mC]*dA*dA*eG*eA) [compound 435755]	0%
435500 (antisense eA*e[5mC]*dT*dG*dG*dG*dA*dG*dA*d[5mC]*d[5mC]*d[5mC]*eT*eG) [compound 435500]	49%
435839 (antisense eG*eG*dT*d[5mC]*dA*dG*d[5mC]*dT*dG*dG*dT*d[5mC]*eT*eG) [compound 435839]	14%
435656 (antisense eA*e[5mC]*dT*dG*d[5mC]*dT*d[5mC]*dA*d[5mC]*dA*dG*d[5mC]*e[5mC]*eG) [compound 435656]	58%
435849 (antisense eT*eG*d[5mC]*d[5mC]*dG*dT*dA*dG*dT*dG*dG*d[5mC]*e[5mC]*eG) [compound 435849]	31%
435766 (antisense eG*e[5mC]*dA*d[5mC]*d[5mC]*dT*dG*d[5mC]*dA*dG*d[5mC]*d[5mC]*eA*eG) [compound 435766]	51%
435822 (antisense e[5mC]*e[5mC]*dA*dG*dG*dA*dG*d[5mC]*d[5mC]*dT*dT*dT*eA*e[5mC]) [compound 435822]	37%
435730 (antisense eT*eA*dA*dA*d[5mC]*dA*dA*d[5mC]*d[5mC]*dG*d[5mC]*d[5mC]*eT*eT) [compound 435730]	49%
435488 (antisense e[5mC]*eA*dG*dT*d[5mC]*d[5mC]*dT*dG*dG*dG*dT*d[5mC]*eA*eT) [compound 435488]	17%
435843 (antisense eG*e[5mC]*dT*dG*dG*dA*dG*d[5mC]*dT*dG*dA*dG*e[5mC]*e[5mC]) [compound 435843]	0%
435838 (antisense eT*e[5mC]*d[5mC]*dA*dT*dG*dG*dA*d[5mC]*dA*d[5mC]*dT*eA*eA) [compound 435838]	29%
435673 (antisense eA*eG*dA*d[5mC]*d[5mC]*dA*d[5mC]*d[5mC]*d[5mC]*dA*dG*dA*eT*eG) [compound 435673]	34%
435740 (antisense eT*e[5mC]*dA*dT*dT*dT*d[5mC]*dA*dG*dT*dG*dA*eT*eG) [compound 435740]	0%
435805 (antisense eT*eG*dA*dA*dT*dT*dA*d[5mC]*dT*dG*dA*dA*e[5mC]*e[5mC]) [compound 435805]	0%
435665 (antisense eA*eG*dG*dT*dA*dT*dT*dT*dT*dT*d[5mC]*d[5mC]*eA*e[5mC]) [compound 435665]	0%
435833 (antisense eA*eG*dA*d[5mC]*dA*d[5mC]*dT*dT*dG*dA*dG*dA*eG*e[5mC]) [compound 435833]	24%
435836 (antisense e[5mC]*eT*dA*dG*dG*dT*d[5mC]*dT*dG*d[5mC]*dA*dG*eG*eG) [compound 435836]	41%
435784 (antisense e[5mC]*e[5mC]*dT*dA*dA*dG*dT*dG*dT*dG*d[5mC]*dT*eT*eT) [compound 435784]	17%
435768 (antisense eG*e[5mC]*d[5mC]*dT*dG*dG*dA*dT*dG*d[5mC]*dT*dG*eG*eT) [compound 435768]	75%
435752 (antisense eT*eG*d[5mC]*dA*dG*d[5mC]*dT*dT*dG*d[5mC]*d[5mC]*dA*eG*eG) [compound 435752]	12%
435831 (antisense eG*eA*dT*d[5mC]*dT*dT*d[5mC]*dA*d[5mC]*dA*dT*dA*eG*e[5mC]) [compound 435831]	51%
435502 (antisense eG*eT*dA*d[5mC]*dT*dG*dG*dG*dA*dG*dA*d[5mC]*e[5mC]*e[5mC]) [compound 435502]	69%
435494 (antisense eA*eG*dA*d[5mC]*d[5mC]*d[5mC]*dT*dG*dG*dT*dG*dT*eA*e[5mC]) [compound 435494]	47%
